# Reference: patent US5187082A, “Process for producing A83850 antibiotics” (Eli Lilly and Company, priority 1990, dated 1993)
# Experiments:
# Bacteriodes vulgatis = assay: Activity against anaerobic bacteria, agar-dilution MIC; conditions: 24 h
# [1] = tested on: Fusobacterium necrophorum; assay: microbe, parasite or virus in culture; conditions: 24 h
# Staphylococcus aureus = assay: In vivo activity against experimentally-induced infection in mice; conditions: doses administered subcutaneously to mice 1 and 4 hours postinfection
# Procedure: (§1) The A83850 antibiotics have also shown in vivo antimicrobial activity against experimentally-induced infections in laboratory animals. When two doses of test compound were administered to mice experimentally infected with the test organism, the activity observed was measured as an ED50 value [effective dose in mg/kg to protect 50% of the test animals: see Warren Wick, et al., J. Bacteriol. 81, 233-235 (1961)].
# (§2) ^a mg/kg × 2; doses administered subcutaneously to mice 1 and 4
# Streptococcus pyogenes = assay: as above; conditions: doses administered subcutaneously to mice 1 and 4 hours postinfection
# Procedure: as §1, §2
# Streptococcus pneumoniae = assay: as above; conditions: doses administered subcutaneously to mice 1 and 4 hours postinfection
# Procedure: as §1, §2
# [2] = tested on: Streptococcus pneumoniae Park 1; assay: microbe, parasite or virus in culture; format: cell-based; conditions: Streptococcus pneumoniae, PARK1
# Procedure: (§3) The MIC's in Table VII were determined by standard agar-dilution assays.
# [3] = tested on: Staphylococcus epidermidis 270; format: cell-based; conditions: Staphylococcus epidermidis, 270
# Procedure: as §3
# Enterococcus faecium X66 = format: cell-based; conditions: Enterococcus faecium, X66
# Procedure: as §3
# [4] = tested on: Enterococcus faecalis 2041; format: cell-based; conditions: Enterococcus faecalis, 2041
# Procedure: as §3
# [5] = tested on: Staphylococcus aureus X1.1; format: cell-based; conditions: Staphylococcus aureus, X1.1
# Procedure: as §3
# [6] = tested on: Streptococcus pyogenes C203; format: cell-based; conditions: Streptococcus pyogenes, C203
# Procedure: as §3
# [7] = tested on: Staphylococcus aureus X400; format: cell-based; conditions: Staphylococcus aureus, X400
# Procedure: as §3
# [8] = tested on: Staphylococcus epidermidis 222; format: cell-based; conditions: Staphylococcus epidermidis, 222
# Procedure: as §3
# [9] = tested on: Staphylococcus aureus V41; format: cell-based; conditions: Staphylococcus aureus, V41
# Procedure: as §3
# Clostridium difficile = assay: Activity against anaerobic bacteria, agar-dilution MIC; conditions: Clostridioides difficile, 24 h
# Bacteroides corrodens = assay: as above; format: cell-based; conditions: Eikenella corrodens, 24 h
# Clostridium septicum = assay: microbe, parasite or virus in culture; conditions: 24 h
# [10] = tested on: Culture A83850 (Amycolatopsis albus NRRL 18532); assay: Resistance of culture A83850 to antibiotics, sensitivity discs on seeded ISP No. 2 agar plates; format: cell-based; conditions: disc content printed per antibiotic
# Procedure: Resistance to antibiotics was measured by padding antibiotic sensitivity discs onto the surface of seeded ISP No. 2 agar plates.
# [11] = tested on: Bacteriodes melaninogenicus; assay: Activity against anaerobic bacteria, agar-dilution MIC; format: cell-based; conditions: 24 h
# Peptococcus prevoti = assay: as above; conditions: 24 h
# [12] = tested on: Peptococcus asaccharolyticus; assay: as above; conditions: Peptoniphilus asaccharolyticus, 24 h
# Propionibacterium acnes = assay: as above; format: cell-based; conditions: Cutibacterium acnes, 24 h
# Clostridium perfringens = assay: microbe, parasite or virus in culture; conditions: 24 h
# [13] = tested on: Bacteriodes thetaiotaomicron; assay: Activity against anaerobic bacteria, agar-dilution MIC; conditions: 24 h
# [14] = tested on: Peptostreptococcus intermedius; assay: as above; format: cell-based; conditions: Peptostreptococcus, 24 h
# Bacteriodes fragilis = assay: as above; format: cell-based; conditions: 24 h
# [15] = tested on: Peptostreptococcus anaerobius; assay: as above; format: cell-based; conditions: 24 h
# Eubacterium aerofaciens = assay: microbe, parasite or virus in culture; conditions: Collinsella aerofaciens, 24 h
# Fusobacterium symbiosum = assay: microbe, parasite or virus in culture; conditions: 24 h
structure (smiles),measurement,setting,value
"CN[C@H](CC(C)C)C(=O)N[C@H]1C(=O)N[C@@H](CC(N)=O)C(=O)N[C@H]2C(=O)N[C@H]3C(=O)N[C@H](C(=O)N[C@H](C(=O)O)c4cc(O)cc(O)c4-c4cc3ccc4O)[C@H](O)c3ccc(c(Cl)c3)Oc3cc2cc(c3O[C@@H]2O[C@H](CO)[C@@H](O)[C@H](O)[C@H]2O[C@H]2C[C@](C)(N)[C@H](O)[C@H](C)O2)Oc2ccc(cc2Cl)[C@H]1O [Vancomycin, vancomycin, reference compound]",MIC,Bacteriodes vulgatis,16 µg/mL
same,MIC,[1],1 µg/mL
same,ED50 Value,Staphylococcus aureus,1.43 mg/kg × 2
same,ED50 Value,Streptococcus pyogenes,0.98 mg/kg × 2
same,ED50 Value,Streptococcus pneumoniae,0.67 mg/kg × 2
same,MIC,[2],0.5 µg/mL
same,MIC,[3],1 µg/mL
same,MIC,Enterococcus faecium X66,1 µg/mL
same,MIC,[4],4 µg/mL
same,MIC,[5],0.5 µg/mL
same,MIC,[6],0.5 µg/mL
same,MIC,[7],1 µg/mL
same,MIC,[8],1 µg/mL
same,MIC,[9],0.5 µg/mL
same,MIC,Clostridium difficile,2 µg/mL
same,MIC,Bacteroides corrodens,32 µg/mL
same,MIC,Clostridium septicum,2 µg/mL
same,Resistance or inhibition of culture A83850 by antibiotic disc,[10],inhibited
same,MIC,[11],128 µg/mL
same,MIC,Peptococcus prevoti,4 µg/mL
same,MIC,[12],4 µg/mL
same,MIC,Propionibacterium acnes,4 µg/mL
same,MIC,Clostridium perfringens,2 µg/mL
same,MIC,[13],64 µg/mL
same,MIC,[14],2 µg/mL
same,MIC,Bacteriodes fragilis,16 to 32 µg/mL
same,MIC,[15],1 µg/mL
same,MIC,Eubacterium aerofaciens,8 µg/mL
same,MIC,Fusobacterium symbiosum,2 µg/mL
